Like-named read-outs stand apart in the source and are kept apart here.
Assays:
[1] = system: Myzus persicae; assay: Myzus persicae test (spray treatment of infested cabbage leaves); type: in vivo, green peach aphid (Myzus persicae); conditions: for pest or weed control at 0.0064 g/ha / pest or weed control at 0.032 g/ha / pest or weed control at 0.8 g/ha / pest or weed control at 4 g/ha / pest or weed control at 0.16 g/ha: Myzus persicae
Protocol: (§1) If the actual kill rate exceeds the calculated value, the kill of the combination is superadditive, i.e. a synergistic effect is present. In this case, the actually observed kill rate must exceed the value calculated using the above formula for the expected kill rate (E).
(§2) solvents: 78 parts by weight of acetone • • 1.5 parts by weight of dimethylformamide emulsifier: 0.5 part by weight of alkylaryl polyglycol ether
After the desired period of time, the kill in % is determined 100% means that all aphids have been killed; 0% means that none of the aphids have been killed. The kill rates determined are entered into Colby's formula.

[2] = system: Phaedon cochleariae; assay: Phaedon cochleariae larvae test (sprayed cabbage leaves); type: in vivo, mustard beetle (Phaedon cochleariae) larvae
Protocol: as §1
Solvents: 78 parts by weight of acetone • • 1.5 parts by weight of dimethylformamide Emulsifier: 0.5 part by weight of alkylaryl polyglycol ether
After the desired period of time, the kill in % is determined 100% means that all beetle larvae have been killed; 0% means that none of the beetle larvae have been killed. The kill rates determined are entered into Colby's formula.

[3] = system: Spodoptera frugiperda; assay: Spodoptera frugiperda larvae test (sprayed cabbage leaves); type: in vivo, army worm (Spodoptera frugiperda) larvae; conditions: Spodoptera frugiperda
Excerpt: (§3) The expected activity of a given combination of two active compounds can be calculated as follows, according to S. R. Colby, Weeds 15 (1967), 20-22:
(§4) X is the kill rate, expressed as a percentage of the untreated control, when employing active compound A at an application rate of m g/ha or in a concentration of m ppm, Y is the kill rate, expressed as a percentage of the untreated control, when employing active compound B at an application rate of n g/ha or in a concentration of n ppm and E is the kill rate, expressed as a percentage of the untreated control, when employing active compounds A and B at application rates of m and n g/ha or in a concentration of m and n ppm, then
as §1, §2
(§5) To produce a suitable preparation of active compound, 1 part by weight of active compound is mixed with the stated amounts of solvents and emulsifier, and the concentrate is diluted with emulsifier-containing water to the desired concentration.
Cabbage leaves (Brassica oleracea) are treated by spraying with the active compound preparation of the desired concentration and are populated with larvae of the army worm (Spodoptera frugiperda) while the leaves are still moist.
After the desired period of time, the kill in % is determined 100% means that all caterpillars have been killed; 0% means that none of the caterpillars have been killed. The kill rates determined are entered into Colby's formula.

[4] = system: Tetranychus urticae; assay: Tetranychus urticae test (OP-resistant/spray treatment); type: in vivo, greenhouse red spider mite (Tetranychus urticae); conditions: Tetranychus urticae, 144 h; single active compound, 0.8 g/ha, after 6 d; read-out: Kill in % after 6 d
Excerpt: as §3, §4, §1, §2, §5
Discs of bean leaves (Phaseolus vulgaris) which are infested by all stages of the greenhouse red spider mite (Tetranychus urticae) are sprayed with an active compound preparation of the desired concentration.
After the desired period of time, the activity in % is determined 100% means that all spider mites have been killed; 0% means that none of the spider mites have been killed.

[5] = 144 h, read-out: Kill in % after 6 d
[6] = Phaedon cochleariae, 144 h, single active compound, 6 d, read-out: Kill in % after 6 d
[7] = Phaedon cochleariae, 48 h, single active compound, 2 d, read-out: Kill in % after 2 d
[8] = Phaedon cochleariae, 144 h, single active compound, 0.8 g/ha, 6 d, read-out: Kill in % after 6 d
[9] = 24 h, read-out: Kill in % after 1 d
[10] = Phaedon cochleariae, 144 h, single active compound, 100 g/ha, 6 d, read-out: Kill in % after 6 d
[11] = single active compound, 0.8 g/ha, 6 d

`CC1(C)C(C=C(Cl)Cl)C1C(=O)OC(C#N)c1cccc(Oc2ccccc2)c1` (stereo not drawn) [alpha-cypermethrin] was tested, and the pest or weed control at 0.0064 g/ha [1, 5] was 0%, the pest or weed control at 0.16 g/ha [2, 6] was 0% and the “Kill in % after 2 d” value ([2]; single active compound, 0.8 g/ha, 2 d) was 0%.

`CC1(C)C(C=C(Cl)Cl)C1C(=O)OC(C#N)c1ccc(F)c(Oc2ccccc2)c1` (stereo not drawn) [β-cyfluthrin, betacyfluthrin] was tested, and the pest or weed control at 0.0064 g/ha [1, 5] was 0%, the pest or weed control at 0.032 g/ha [1, 5] was 0% and the pest or weed control at 0.16 g/ha [3, 5] was 0%. For the same compound, the pest or weed control at 0.16 g/ha [2, 6] was 0%.

For `O=[N+]([O-])/N=C1\NCCN1Cc1cnc(Cl)s1` [imidaclothiz], the pest or weed control at 4 g/ha ([2]; Phaedon cochleariae, 144 h, single active compound, 4 g/ha, 6 d, read-out: Kill in % after 6 d) was 0%.

Work on `CCCSP(=O)(OCC)Oc1ccc(Br)cc1Cl` (centres unmarked) [profenofos] yielded a pest or weed control at 20 g/ha [2, 7] of 50%.

`CC[S+]([O-])c1c(C#N)nn(-c2c(Cl)cc(C(F)(F)F)cc2Cl)c1N` (centres unmarked) [ethiprole] was tested, and the pest or weed control at 0.8 g/ha [1, 5] was 0%.

With `CN1COCN(Cc2cnc(Cl)s2)/C1=N/[N+](=O)[O-]` [thiamethoxam] the pest or weed control at 0.0064 g/ha [1, 5] was 0%, the pest or weed control at 0.032 g/ha [1, 5] was 0% and the pest or weed control at 0.8 g/ha [2, 8] was 0%.

Compound `N#CCNC(=O)c1cnccc1C(F)(F)F` [flonicamid] has a pest or weed control at 0.8 g/ha [1, 9] of 0%, a pest or weed control at 4 g/ha [1, 9] of 20% and a pest or weed control at 0.032 g/ha [1, 5] of 0%. For the same compound, the pest or weed control at 20 g/ha [2, 7] was 0%, the pest or weed control at 0.8 g/ha [2, 8] was 0% and the pest or weed control at 100 g/ha [2, 10] was 0%.

`Cc1cc(C)c([S+]([O-])CC(F)(F)F)cc1-n1cnc(C(F)(F)F)n1` (centres unmarked) [II-29-31, 1-{2,4-dimethyl-5-[(2,2,2-trifluoroethyl)sulphinyl]phenyl}-3-(trifluoromethyl)-1H-1,2,4-triazole] showed a pest or weed control at 0.8 g/ha [4] of 60%.

With `CN1CN(C)/C(=N\[N+](=O)[O-])N(Cc2cnc(Cl)s2)C1` [AKD 1022] the “Kill in % after 6 d” value [2, 11] was 0%.

Compound `COc1cccc(C(=O)NN(C(=O)c2cc(C)cc(C)c2)C(C)(C)C)c1C` [methoxyfenozide] has a pest or weed control at 0.16 g/ha [1, 5] of 0%, a pest or weed control at 0.8 g/ha [1, 5] of 0% and a pest or weed control at 4 g/ha [3, 5] of 50%. It also gave a pest or weed control at 20 g/ha [2, 6] of 0%.

For pyridaben, the “Kill in % after 6 d” value [1, 11] was 0% and the “Kill in % after 6 d” value ([2]; single active compound, 4 g/ha, 6 d) was 50%.

`CNC(=O)c1cc(Cl)cc(C)c1NC(=O)c1cc(Br)nn1-c1ncccc1Cl` [Rynaxapyr, Chlorantraniliprole] showed a pest or weed control at 0.032 g/ha [1, 5] of 0% and a pest or weed control at 0.16 g/ha ([3]; 48 h, read-out: Kill in % after 2 d) of 33%.

For `CC(C)N1C(=O)N(c2ccccc2)CS/C1=N\C(C)(C)C` [buprofezin], the pest or weed control at 4 g/ha [1, 9] was 0% and the pest or weed control at 100 g/ha [2, 10] was 0%.

Work on `COP(=O)(NC(C)=O)SC` (centres unmarked) [acephate] yielded a pest or weed control at 100 g/ha ([2]; Phaedon cochleariae, 144 h, read-out: Kill in % after 6 d) of 0%.

Compound `CNC(=O)c1cc(C#N)cc(C)c1NC(=O)c1cc(Br)nn1-c1ncccc1Cl` [cyazypyr, Cyantraniliprole] has a pest or weed control at 0.16 g/ha [1, 9] of 0% and a pest or weed control at 0.16 g/ha [2, 7] of 17%.

With `Cc1cc(C(F)(C(F)(F)F)C(F)(F)F)ccc1NC(=O)c1cccc(Cl)c1C(=O)N[C@@H](C)CS(C)(=O)=O` [compound II-28-2] the pest or weed control at 0.032 g/ha ([1]; 144 h, single active compound, 0.032 g/ha, 6 d, read-out: Kill in % after 6 d) was 0%, the pest or weed control at 0.16 g/ha ([3]; 144 h, single active compound, 0.16 g/ha, 6 d, read-out: Kill in % after 6 d) was 50% and the pest or weed control at 0.8 g/ha [2, 8] was 0%.

In the case of `N#C/N=C1\SCCN1Cc1ccc(Cl)nc1` [thiacloprid], the pest or weed control at 0.16 g/ha [1, 9] is reported as 0%, the pest or weed control at 20 g/ha [3, 5] is reported as 50% and the pest or weed control at 20 g/ha [2, 6] is reported as 50%.

In the case of `CC1(C)C(/C=C(\Cl)C(F)(F)F)C1C(=O)OC(C#N)c1cccc(Oc2ccccc2)c1` (centres unmarked) [lambda-cyhalothrin], the pest or weed control at 0.0064 g/ha [1, 5] is reported as 0%, the pest or weed control at 0.032 g/ha [1, 5] is reported as 0% and the pest or weed control at 0.8 g/ha [3, 5] is reported as 67%. It also gave a pest or weed control at 0.16 g/ha [2, 6] of 17%.
